Reference: patent publication US20120208781A1, “AMINOGLYCOSIDE DOSING REGIMENS” (Achaogen, Inc., priority 2009, published 2012)
Values after ≈ are worked out from the molar mass of the structure shown. Values joined by “and” are separate entries in the source; they are usually repeats but may differ in a detail not shown here. Equal entries are not always repeated. “Also recorded” adds a separate entry of the source. Where two headings read alike, the source gives them in different places.

Key:
[1] = Urine concentration analysis / urinary recovery of Compound 1 in beagle dogs; assay type: in vivo; settings: 10 mg/kg IV; for % of Cmpd 1 recovered in urine: 24 hours; for concentration at 6 h / concentration at 12 h / concentration at 24 h: male, beagle, dog, urine, iv, read-out: Cmpd 1 urine concentration
Protocol: Male CD-1 mice, Sprague Dawley rats, and beagle dogs were administered Compound 1 intravenously. Compound 1 was preformulated as a sterile isotonic solution of 10 mg/mL in PBS. Specifically, male CD-1 mice were administered a single bolus IV injection of the Compound at 10 mg/kg, via a bolus IV injection into the tail vein. Two blood samples per mouse were collected by retro-orbital puncture into tubes containing the anticoagulant K2EDTA prior to dosing and at 0.033, 0.083, 0.25, 0.5, 1 and 24 hours. Rats were administered Compound 1 at 10 mg/kg via a bolus IV injection into the tail vein. Twelve blood samples per rat were collected via a jugular vein cannula into tubes containing the anticoagulant K2EDTA at various timepoints (i.e., 0.033, 0.083, 0.25, 0.5, 1, 2, 4, 6, 8, 10, 12, and 24 hours). Male beagle dogs were administered Compound 1 at 10 mg/kg through a temporary percutaneous catheter placed in a peripheral vein. Whole blood samples (0.5 mL) were collected from each dog prior to dosing and at 0.033, 0.083, 0.25, 0.5, 1, 2, 4, 6, 8, and 24 hours via direct venipuncture of a jugular or cephalic vein into tubes containing the anticoagulant K2EDTA. A sparse sampling method was employed to conserve animals and provide the best data possible from fewer mice. Samples were centrifuged, and plasma was collected and transferred into a new tube and frozen at −80° C. until they were analyzed.
Blood, urine, and kidney samples collected over 24 hours were analyzed for Compound 1 levels using LC-MS/MS. Method performance was acceptable in the concentration ranges necessary to determine plasma levels. Compound 1 plasma concentrations were determined by comparing Compound 1 concentration in the sample to a standard curve derived from LC-MS/MS measurements of the analyte. The standard curve fit was linear with a 1/x^2 weighting.

Enterobacteriaceae (ENT) = test: MIC, CLSI broth microdilution, worldwide isolates: Enterobacteriaceae; assay type: cell-based
Excerpt: In the first study, a total of 235 isolates were collected from medical centers worldwide and tested for susceptibility to Compound 1 and comparator agents by CLSI broth microdilution methods. […] Non-ENT GN pathogens included WT P. aeruginosa (PSA) and Acinetobacter spp. (ACB), and carbapenem (CARB)-R strains, including those with MBL and OXA enzymes, SA and coagulase-negative staphylococci (CoNS) included oxacillin-susceptible (MSSA/MS-CoNS) and —R (MRSA/MR-CoNS) strains.
Minimum inhibitory concentrations (MIC) were determined by reference Clinical and Laboratory Standards Institute (CLSI) broth microdilution methods per M7-A7 [2006]. Briefly, serial two-fold dilutions of Compound 1 and comparator AGs (together, “the test compounds”) were prepared at 2× concentration in appropriate diluent. The dilutions were mixed in 96-well assay plates with bacterial inoculum. Bacteria were suspended in sterile saline and added to each assay plate to obtain a final concentration of 5.5×10^5 CFU/mL. The plates were incubated at 35° C. for 20 hours in ambient air. […] After incubation, assay plates were read using a microtiter plate reader at 600 nm.

K. pneumoniae (KP) = test: MIC, broth microdilution, Brooklyn hospital isolates: K. pneumoniae; assay type: cell-based; settings: Klebsiella pneumoniae; KP (n = 71)
Protocol: (§1) In another study, the activity of Compound 1 against a collection of contemporary Gram-negative bacteria was determined. Unique patient isolates of P. aeruginosa (PA), A. baumannii (AB), K. pneumoniae (KP), E. coli (EC), and Enterobacter spp. (EB) from prior surveys at 16 Brooklyn, N.Y. hospitals were selected based on resistance patterns. The majority of isolates were fingerprinted by automated ribotyping. MICs were performed by broth microdilution. PCR was used to identify aminoglycoside-modifying enzymes (AMEs) in AB and KP and the KPC gene in Enterobacteriaceae (EN). The expression of the efflux genes mexA, C, E and X in PA, and adeB in AB was assessed by real-time RT-PCR.

E. coli (EC) = test: MIC, broth microdilution, Brooklyn hospital isolates: E. coli; assay type: cell-based; settings: Escherichia coli; EC (n = 32)
Protocol: as §1

[2] = First-in-human phase 1 study: urine levels of Compound 1; assay type: in vivo; settings: Cohort 4 (15 mg/kg)
Protocol: Pooled urine samples for PK analysis were obtained with the single dose and first and last multiple-dose.
The levels of Compound 1 present in the urine of Cohort 4 patients during the 24 hours following administration of the third multi-dose was also examined. […] Perhaps of even greater significance, the concentration of Compound 1 achieved in the urine was at least 1 mg/ml immediately following administration, and remained over 0.1 mg/ml for 12 hours.

hearing function = test: 28-day guinea pig ototoxicity study of Compound 1: ABR and observations
Protocol: Additionally, four groups of four male and four female animals were utilized for toxicokinetic (TK) sampling and received the control or test article in the same manner as the main study groups at respective dose levels of 0 (Vehicle Control), 8, 30, or 80 mg/kg.
Physical examinations were conducted pretest on all animals and prior to study termination for main study animals. […] Blood samples for determination of the plasma concentrations of the test article were collected from TK animals at designated time points on Day 1 and Day 14. After blood collection, the TK animals were euthanized and the carcasses were discarded.

[3] = Enterobacteriaceae, KPC, NMC, SME (15)

CN[C@@H]1[C@@H](O)[C@@H](O[C@@H]2[C@@H](O)[C@H](O[C@H]3OC(CNCCO)=CC[C@H]3N)[C@@H](N)C[C@H]2NC(=O)[C@@H](O)CCN)OC[C@]1(C)O [Compound 1, 6′-(2-Hydroxy-ethyl)-1-(4-amino-2(S)-hydroxy-butyryl)-sisomicin]
% of Cmpd 1 recovered in urine ([1]; Dog 6001): 134%
% of Cmpd 1 recovered in urine ([1]; Dog 6002): 135%
% of Cmpd 1 recovered in urine ([1]; Dog 6003): 87%
% of Cmpd 1 recovered in urine ([1]; Mean (±SD), 10 mg/kg): 119% and 119 ± 22%
Cmpd 1 urine concentration ([1]; Dog 6001, Total): 1070 µg/mL
Cmpd 1 urine concentration ([1]; Dog 6002, Total): 573 µg/mL
Cmpd 1 urine concentration ([1]; Dog 6003, 6 hr): 1180 µg/mL
Cmpd 1 urine concentration ([1]; Dog 6003, Total): 1324 µg/mL
concentration at 6 h ([1]; 10 mg/kg, Dog 6001, 6 hr): 1000 µg/mL
concentration at 12 h ([1]; 10 mg/kg, Dog 6001, 12 hr): 47 µg/mL
concentration at 24 h ([1]; 10 mg/kg, Dog 6001, 24 hr): 24 µg/mL
concentration at 6 h ([1]; 10 mg/kg, Dog 6002, 6 hr): 505 µg/mL
concentration at 24 h ([1]; 10 mg/kg, Dog 6002, 24 hr): 68 µg/mL
concentration at 12 h ([1]; 10 mg/kg, Dog 6003, 12 hr): 100 µg/mL
concentration at 24 h ([1]; 10 mg/kg, Dog 6003, 24 hr): 44 µg/mL
MIC50 (Enterobacteriaceae (ENT)): ≤ 0.25 µg/mL
MIC90 (Enterobacteriaceae (ENT)): 2 µg/mL (≈ 3.37 µM)
Cumulative % inhibited at Cmpd. MIC 1 (Enterobacteriaceae (ENT); Enterobacteriaceae (125)): 80.0%
Cumulative % inhibited at Cmpd. MIC 2 (Enterobacteriaceae (ENT); Enterobacteriaceae (125)): 92.0%
Cumulative % inhibited at Cmpd. MIC 4 (Enterobacteriaceae (ENT); Enterobacteriaceae (125)): 98.4%
Cumulative % inhibited at Cmpd. MIC 8 (Enterobacteriaceae (ENT); Enterobacteriaceae (125)): 98.4%
Cumulative % inhibited at Cmpd. MIC 16 (Enterobacteriaceae (ENT); Enterobacteriaceae (125)): 98.4%
Cumulative % inhibited at Cmpd. MIC 32 (Enterobacteriaceae (ENT); Enterobacteriaceae (125)): 98.4%
Cumulative % inhibited at Cmpd. MIC 64 (Enterobacteriaceae (ENT); Enterobacteriaceae (125)): 98.4%
Cumulative % inhibited at Cmpd. MIC >64 (Enterobacteriaceae (ENT); Enterobacteriaceae (125)): 100.0%
Cumulative % inhibited at Cmpd. MIC ≦0.5 (Enterobacteriaceae (ENT); Enterobacteriaceae (125)): 56.0%
Cumulative % inhibited at Cmpd. MIC 1 (Enterobacteriaceae (ENT); Enterobacteriaceae, AmpC (20)): 85.0%
Cumulative % inhibited at Cmpd. MIC 2 (Enterobacteriaceae (ENT); Enterobacteriaceae, AmpC (20)): 95.0%
Cumulative % inhibited at Cmpd. MIC 4 (Enterobacteriaceae (ENT); Enterobacteriaceae, AmpC (20)): 95.0%
Cumulative % inhibited at Cmpd. MIC 8 (Enterobacteriaceae (ENT); Enterobacteriaceae, AmpC (20)): 95.0%
Cumulative % inhibited at Cmpd. MIC 16 (Enterobacteriaceae (ENT); Enterobacteriaceae, AmpC (20)): 95.0%
Cumulative % inhibited at Cmpd. MIC 32 (Enterobacteriaceae (ENT); Enterobacteriaceae, AmpC (20)): 95.0%
Cumulative % inhibited at Cmpd. MIC 64 (Enterobacteriaceae (ENT); Enterobacteriaceae, AmpC (20)): 95.0%
Cumulative % inhibited at Cmpd. MIC >64 (Enterobacteriaceae (ENT); Enterobacteriaceae, AmpC (20)): 100.0%
Cumulative % inhibited at Cmpd. MIC ≦0.5 (Enterobacteriaceae (ENT); Enterobacteriaceae, AmpC (20)): 75.0%
Cumulative % inhibited at Cmpd. MIC 1 (Enterobacteriaceae (ENT); Enterobacteriaceae, ESBL (20)): 90.0%
Cumulative % inhibited at Cmpd. MIC 2 (Enterobacteriaceae (ENT); Enterobacteriaceae, ESBL (20)): 95.0%
Cumulative % inhibited at Cmpd. MIC 4 (Enterobacteriaceae (ENT); Enterobacteriaceae, ESBL (20)): 95.0%
Cumulative % inhibited at Cmpd. MIC 8 (Enterobacteriaceae (ENT); Enterobacteriaceae, ESBL (20)): 95.0%
Cumulative % inhibited at Cmpd. MIC 16 (Enterobacteriaceae (ENT); Enterobacteriaceae, ESBL (20)): 95.0%
Cumulative % inhibited at Cmpd. MIC 32 (Enterobacteriaceae (ENT); Enterobacteriaceae, ESBL (20)): 95.0%
Cumulative % inhibited at Cmpd. MIC 64 (Enterobacteriaceae (ENT); Enterobacteriaceae, ESBL (20)): 95.0%
Cumulative % inhibited at Cmpd. MIC >64 (Enterobacteriaceae (ENT); Enterobacteriaceae, ESBL (20)): 100.0%
Cumulative % inhibited at Cmpd. MIC ≦0.5 (Enterobacteriaceae (ENT); Enterobacteriaceae, ESBL (20)): 65.0%
Cumulative % inhibited at Cmpd. MIC 1 (Enterobacteriaceae (ENT); [3]): 100.0%
Cumulative % inhibited at Cmpd. MIC ≦0.5 (Enterobacteriaceae (ENT); [3]): 60.0%
Cumulative % inhibited at Cmpd. MIC 1 (Enterobacteriaceae (ENT); Enterobacteriaceae, MBL (10)): 80.0%
Cumulative % inhibited at Cmpd. MIC 2 (Enterobacteriaceae (ENT); Enterobacteriaceae, MBL (10)): 90.0%
Cumulative % inhibited at Cmpd. MIC 4 (Enterobacteriaceae (ENT); Enterobacteriaceae, MBL (10)): 100.0%
Cumulative % inhibited at Cmpd. MIC ≦0.5 (Enterobacteriaceae (ENT); Enterobacteriaceae, MBL (10)): 80.0%
Cumulative % inhibited at Cmpd. MIC 1 (Enterobacteriaceae (ENT); Enterobacteriaceae, WT (60)): 70.0%
Cumulative % inhibited at Cmpd. MIC 2 (Enterobacteriaceae (ENT); Enterobacteriaceae, WT (60)): 88.3%
Cumulative % inhibited at Cmpd. MIC 4 (Enterobacteriaceae (ENT); Enterobacteriaceae, WT (60)): 100.0%
Cumulative % inhibited at Cmpd. MIC ≦0.5 (Enterobacteriaceae (ENT); Enterobacteriaceae, WT (60)): 41.7%
MIC50 (K. pneumoniae (KP)): 0.5 µg/mL (≈ 0.844 µM)
MIC90 (K. pneumoniae (KP)): 1 µg/mL (≈ 1.69 µM)
MIC50 (E. coli (EC)): 1 µg/mL (≈ 1.69 µM)
MIC90 (E. coli (EC)): 2 µg/mL (≈ 3.37 µM)
urine concentration immediately following administration [2]: at least 1 mg/ml
urine concentration maintained for 12 hours [2]: over 0.1 mg/ml
administered Compound 1 excreted within 24 hours (upper estimate) ([2]; after third multi-dose): about 90%
average fraction excreted in urine in an unchanged form over 24 hours ([2]; after third multi-dose): 75%
animals with elevation of ABR thresholds (mild, 4 and 10 kHz, conductive) (hearing function; guinea pigs, 8 mg/kg dose group): one male and one female
ABR pre- to post-dosing hearing threshold shift (hearing function; guinea pigs, 8, 30, 80 mg/kg for 14 days, 4, 10, 20 kHz): no significant pre- to post-dosing hearing threshold shift at any frequency; also recorded: did not have an adverse effect
functional hearing loss (ABR) (hearing function; guinea pigs, 14 days, up to 80 mg/kg/day): no functional hearing loss; also recorded: None of the animals treated with Compound 1 at any dose showed any functional hearing loss
mortality and general observations (hearing function; guinea pigs, SC 8, 30, 80 mg/kg for 14 days): did not produce mortality and was without effect on clinical observations, body weights, physical examinations, ABR evaluations, macroscopic findings, middle ear assessments, or ossicle mobility
